Patent US20070128217A1 (priority 2003, published 2007)

What was measured:
[1] = system: rabbit serum obtained by immunizing a rabbit with the SARS-CoV strain Frankfurt 1; type: binding; set-up: Binding of a rabbit serum to linear peptides / Binding of a rabbit serum to looped peptides / Rabbit serum linear peptides / Rabbit serum looped peptides / Binding of a rabbit serum to linear peptides of protein N of SARS-CoV Urbani (Rabbit serum linear peptides) / Binding of a rabbit serum to looped/cyclic peptides of protein N of SARS-CoV Urbani (Rabbit serum looped peptides): unit not given here
[2] = system: control sera (pooled serum of ten healthy LUMC hospital workers; commercial negative donor pooled serum from the Dutch bloodbank); type: binding, human; set-up: Binding of Control serum LUMC to linear peptides / Binding of Control serum Blood-bank to linear peptides / Binding of Control serum LUMC to looped peptides / Binding of Control Serum Blood-Bank to Looped peptides / Binding of Control serum LUMC to linear peptides of the protein M of SARS-CoV Urbani / Binding of Control serum Blood-bank to linear peptides of the protein M of SARS-CoV Urbani / Binding of Control serum LUMC to looped peptides of the protein M of SARS-CoV Urbani / Binding of Control Serum Blood-Bank to Looped peptides of the protein M of SARS-CoV Urbani: unit not given here
[3] = system: antibodies in sera from SARS patients (sera 1a, 1b, 2, 6, 37, 62, London, SARS-yellow, SARS-green); type: binding, human; set-up: Binding of serum 6 to linear peptides of protein X1 of SARS-CoV Urbani / Binding of serum 37 to linear peptides of protein X1 of SARS-CoV Urbani / Binding of serum 6 to looped/cyclic peptide (PEPSCAN-ELISA) / Binding of serum 37 to looped/cyclic peptide (PEPSCAN-ELISA) / Binding of serum 37 to looped/cyclic peptides of protein X1 of SARS-CoV Urbani / Binding of serum 6 to linear peptides of protein X2 / Binding of serum 37 to linear peptides of protein X2 / Binding of serum 37 to looped/cyclic peptides of protein X2 of SARS-CoV Urbani / Binding of serum 6 to linear peptides of protein M of SARS-CoV Urbani / Binding of serum 37 to linear peptides of protein M of SARS-CoV Urbani / Binding of serum 6 to looped/cyclic peptides of protein M of SARS-CoV Urbani / Binding of serum 37 to looped/cyclic peptides of protein M of SARS-CoV Urbani / Binding of serum 6 to linear peptides of protein X3 of SARS-CoV Urbani / Binding of serum 37 to linear peptides of protein X3 of SARS-CoV Urbani / Binding of serum 37 to looped/cyclic peptides of protein X3 of SARS-CoV Urbani / Binding of serum 6 to linear peptides of protein X4 of SARS-CoV Urbani / Binding of serum 37 to linear peptides of protein X4 of SARS-CoV Urbani / Binding of serum 37 to looped/cyclic peptides of protein X4 of SARS-CoV Urbani / Binding of serum 6 to linear peptides of protein X5 of SARS-CoV Urbani / Binding of serum 37 to linear peptides of protein X5 of SARS-CoV Urbani / Binding of serum 37 to looped/cyclic peptides of protein X5 of SARS-CoV Urbani / Binding of serum 6 to linear peptides of protein N of SARS-CoV Urbani / Binding of serum 37 to linear peptides of protein N of SARS-CoV Urbani / Binding of serum 6 to linear peptide (PEPSCAN-ELISA) / Binding of serum 1a to looped/cyclic peptides of protein N of SARS-CoV Urbani / Binding of serum 1b to looped/cyclic peptides of protein N of SARS-CoV Urbani / Binding of serum 2 to looped/cyclic peptides of protein N of SARS-CoV Urbani / Binding of serum 6 to looped/cyclic peptides of protein N of SARS-CoV Urbani / Binding of serum 37 to looped/cyclic peptides of protein N of SARS-CoV Urbani / Binding of serum 62 to looped/cyclic peptides of protein N of SARS-CoV Urbani / Binding of serum London to looped/cyclic peptides of protein N of SARS-CoV Urbani / Binding of serum SARS-green to looped/cyclic peptides of protein N of SARS-CoV Urbani: unit not given here

SPKLFIRQEEVQQEL
0.7: Binding of serum 1a to linear peptides of protein X4 of SARS-CoV Urbani [3] | Binding of serum 2 to looped/cyclic peptides of protein X4 of SARS-CoV Urbani [3] | Binding of serum 37 to linear peptides of protein X4 of SARS-CoV Urbani [3] | Binding of serum 62 to linear peptides of protein X4 of SARS-CoV Urbani [3] | Binding of serum London to linear peptides of protein X4 of SARS-CoV Urbani [3]
0.3: Binding of serum 2 to linear peptides of protein X4 of SARS-CoV Urbani [3]
0.2: Binding of serum SARS-green to looped/cyclic peptides of protein X4 of SARS-CoV Urbani [3]
0.0: Rabbit serum looped peptides [1]
0.6: Binding of Control Serum Blood-Bank to Looped peptides [2] | Binding of serum 1b to looped/cyclic peptides of protein X4 of SARS-CoV Urbani [3] | Binding of serum 6 to looped/cyclic peptides of protein X4 of SARS-CoV Urbani [3] | Binding of serum 62 to looped/cyclic peptides of protein X4 of SARS-CoV Urbani [3]
0.4: Binding of serum 6 to linear peptides of protein X4 of SARS-CoV Urbani [3] | Binding of serum London to looped/cyclic peptides of protein X4 of SARS-CoV Urbani [3]
0.8: Binding of Control serum LUMC to looped peptides [2] | Binding of serum 1a to looped/cyclic peptides of protein X4 of SARS-CoV Urbani [3] | Binding of serum 37 to looped/cyclic peptides of protein X4 of SARS-CoV Urbani [3] | Binding of serum SARS-green to linear peptides of protein X4 of SARS-CoV Urbani [3]
0.5: Rabbit serum linear peptides [1] | Binding of Control serum Blood-bank to linear peptides [2] | Binding of Control serum LUMC to linear peptides [2] | Binding of serum 1b to linear peptides of protein X4 of SARS-CoV Urbani [3] | Binding of serum SARS-yellow to linear peptides of protein X4 of SARS-CoV Urbani [3] | Binding of serum SARS-yellow to looped/cyclic peptides of protein X4 of SARS-CoV Urbani [3]

QTAAFRDVLVVLNKR
0.2: Binding of serum SARS-green to linear peptides of protein X5 of SARS-CoV Urbani [3]
0.5: Rabbit serum looped peptides [1] | Binding of Control serum LUMC to looped peptides [2] | Binding of serum 1a to linear peptides of protein X5 of SARS-CoV Urbani [3] | Binding of serum 1b to linear peptides of protein X5 of SARS-CoV Urbani [3] | Binding of serum 1b to looped/cyclic peptides of protein X5 of SARS-CoV Urbani [3] | Binding of serum 37 to linear peptides of protein X5 of SARS-CoV Urbani [3] | Binding of serum London to linear peptides of protein X5 of SARS-CoV Urbani [3] | Binding of serum London to looped/cyclic peptides of protein X5 of SARS-CoV Urbani [3]
0.8: Binding of Control serum LUMC to linear peptides [2] | Binding of serum 6 to looped/cyclic peptides of protein X5 of SARS-CoV Urbani [3]
0.3: Binding of serum SARS-green to looped/cyclic peptides of protein X5 of SARS-CoV Urbani [3]
0.6: Binding of Control serum Blood-bank to linear peptides [2] | Binding of serum 1a to looped/cyclic peptides of protein X5 of SARS-CoV Urbani [3] | Binding of serum 2 to linear peptides of protein X5 of SARS-CoV Urbani [3] | Binding of serum 2 to looped/cyclic peptides of protein X5 of SARS-CoV Urbani [3] | Binding of serum 6 to linear peptides of protein X5 of SARS-CoV Urbani [3] | Binding of serum 37 to looped/cyclic peptides of protein X5 of SARS-CoV Urbani [3] | Binding of serum 62 to looped/cyclic peptides of protein X5 of SARS-CoV Urbani [3] | Binding of serum SARS-yellow to linear peptides of protein X5 of SARS-CoV Urbani [3]
0.7: Binding of Control Serum Blood-Bank to Looped peptides [2]
0.4: Rabbit serum linear peptides [1] | Binding of serum 62 to linear peptides of protein X5 of SARS-CoV Urbani [3] | Binding of serum SARS-yellow to looped/cyclic peptides of protein X5 of SARS-CoV Urbani [3]

QWNLVIGFLFLAWIM
0.1: Binding of serum SARS-yellow to linear peptides of protein M of SARS-CoV Urbani [3]
0.5: Binding of serum 37 to looped/cyclic peptides of protein M of SARS-CoV Urbani [3]
0.2: Binding of serum London to looped/cyclic peptides of protein M of SARS-CoV Urbani [3] | Binding of serum SARS-green to linear peptides of protein M of SARS-CoV Urbani [3]
0.7: Binding of Control serum Blood-bank to linear peptides of the protein M of SARS-CoV Urbani [2] | Binding of serum 1a to linear peptides of protein M of SARS-CoV Urbani [3] | Binding of serum 1a to looped/cyclic peptides of protein M of SARS-CoV Urbani [3] | Binding of serum 37 to linear peptides of protein M of SARS-CoV Urbani [3] | Binding of serum 62 to looped/cyclic peptides of protein M of SARS-CoV Urbani [3]
0.8: Binding of serum 62 to linear peptides of protein M of SARS-CoV Urbani [3] | Binding of serum SARS-yellow to looped/cyclic peptides of protein M of SARS-CoV Urbani [3]
0.6: Binding of Control Serum Blood-Bank to Looped peptides of the protein M of SARS-CoV Urbani [2] | Binding of Control serum LUMC to looped peptides of the protein M of SARS-CoV Urbani [2] | Binding of serum 1b to looped/cyclic peptides of protein M of SARS-CoV Urbani [3] | Binding of serum 2 to linear peptides of protein M of SARS-CoV Urbani [3] | Binding of serum 2 to looped/cyclic peptides of protein M of SARS-CoV Urbani [3] | Binding of serum 6 to looped/cyclic peptides of protein M of SARS-CoV Urbani [3]
0.3: Rabbit serum linear peptides [1] | Rabbit serum looped peptides [1] | Binding of Control serum LUMC to linear peptides of the protein M of SARS-CoV Urbani [2] | Binding of serum London to linear peptides of protein M of SARS-CoV Urbani [3] | Binding of serum SARS-green to looped/cyclic peptides of protein M of SARS-CoV Urbani [3]
0.4: Binding of serum 1b to linear peptides of protein M of SARS-CoV Urbani [3] | Binding of serum 6 to linear peptides of protein M of SARS-CoV Urbani [3]

ATATIPLQASLPFGW
0.9: Binding of Control serum Blood-bank to linear peptides [2] | Binding of serum 1a to linear peptides of protein X1 of SARS-CoV Urbani [3]
0.1: Binding of a rabbit serum to linear peptides [1]
0.7: Binding of Control serum LUMC to linear peptides [2] | Binding of Control serum LUMC to looped peptides [2] | Binding of serum 1b to linear peptides of protein X1 of SARS-CoV Urbani [3] | Binding of serum 2 to linear peptides of protein X1 of SARS-CoV Urbani [3] | Binding of serum 6 to linear peptides of protein X1 of SARS-CoV Urbani [3] | Binding of serum 37 to linear peptides of protein X1 of SARS-CoV Urbani [3] | Binding of serum 37 to looped/cyclic peptide (PEPSCAN-ELISA) [3] | Binding of serum 62 to looped/cyclic peptide (PEPSCAN-ELISA) [3]
0.6: Binding of a rabbit serum to looped peptides [1] | Binding of serum 1a to looped/cyclic peptide (PEPSCAN-ELISA) [3]
0.8: Binding of Control Serum Blood-Bank to Looped peptides [2] | Binding of serum 62 to linear peptides of protein X1 of SARS-CoV Urbani [3]
0.4: Binding of serum London to linear peptides of protein X1 of SARS-CoV Urbani [3] | Binding of serum SARS-green to linear peptides of protein X1 of SARS-CoV Urbani [3] | Binding of serum SARS-yellow to looped/cyclic peptide (PEPSCAN-ELISA) [3]
0.5: Binding of serum 1b to looped/cyclic peptide (PEPSCAN-ELISA) [3] | Binding of serum 2 to looped/cyclic peptide (PEPSCAN-ELISA) [3] | Binding of serum 6 to looped/cyclic peptide (PEPSCAN-ELISA) [3] | Binding of serum SARS-yellow to linear peptides of protein X1 of SARS-CoV Urbani [3]
0.3: Binding of serum London to looped/cyclic peptide (PEPSCAN-ELISA) [3] | Binding of serum SARS-green to looped/cyclic peptide (PEPSCAN-ELISA) [3]

TRSMWSFNPETNILL
1.0: Binding of serum 1a to looped/cyclic peptides of protein M of SARS-CoV Urbani [3]
0.9: Binding of Control Serum Blood-Bank to Looped peptides of the protein M of SARS-CoV Urbani [2] | Binding of Control serum LUMC to looped peptides of the protein M of SARS-CoV Urbani [2] | Binding of serum 6 to looped/cyclic peptides of protein M of SARS-CoV Urbani [3]
0.7: Binding of Control serum Blood-bank to linear peptides of the protein M of SARS-CoV Urbani [2] | Binding of serum 1b to linear peptides of protein M of SARS-CoV Urbani [3] | Binding of serum SARS-yellow to looped/cyclic peptides of protein M of SARS-CoV Urbani [3]
0.8: Binding of Control serum LUMC to linear peptides of the protein M of SARS-CoV Urbani [2] | Binding of serum 1a to linear peptides of protein M of SARS-CoV Urbani [3] | Binding of serum 2 to looped/cyclic peptides of protein M of SARS-CoV Urbani [3]
0.5: Binding of serum 2 to linear peptides of protein M of SARS-CoV Urbani [3] | Binding of serum 6 to linear peptides of protein M of SARS-CoV Urbani [3] | Binding of serum 37 to linear peptides of protein M of SARS-CoV Urbani [3] | Binding of serum SARS-green to linear peptides of protein M of SARS-CoV Urbani [3] | Binding of serum SARS-green to looped/cyclic peptides of protein M of SARS-CoV Urbani [3]
1.1: Binding of serum 37 to looped/cyclic peptides of protein M of SARS-CoV Urbani [3] | Binding of serum 62 to looped/cyclic peptides of protein M of SARS-CoV Urbani [3]
0.3: Rabbit serum looped peptides [1] | Binding of serum London to linear peptides of protein M of SARS-CoV Urbani [3] | Binding of serum London to looped/cyclic peptides of protein M of SARS-CoV Urbani [3] | Binding of serum SARS-yellow to linear peptides of protein M of SARS-CoV Urbani [3]
0.4: Binding of serum 1b to looped/cyclic peptides of protein M of SARS-CoV Urbani [3] | Binding of serum 62 to linear peptides of protein M of SARS-CoV Urbani [3]
0.1: Rabbit serum linear peptides [1]
